Reference: patent publication US20020035058A1, “Isopentenyl pyrophosphate isomerase (IPI) and/or prenyl transferase inhibitors” (The University of Sheffield, priority 1996, published 2002)
Read-outs that look alike come from different tables or passages of the source. Values belong to the compound of their own block, whether it stands above or below them.

How the values were obtained:
J774 macrophages [1] = experiment: Loss of total cell viability, MTT reduction; assay type: cell-based; conditions: for IC50: read-out: concentration causing 50% loss of total cell viability
[2] = system: protein prenylation in J774 cells; experiment: Protein prenylation: incorporation of mevalonate into proteins; assay type: cell-based; conditions: for incorporation of radiolabel (mevalonate) into protein bands: 100 μM, 24 h labelling period
IPI (IPP isomerase) = IPI (IPP isomerase) (Homo sapiens, UniProt Q13907); experiment: Inhibition of IPI (IPP isomerase) by bisphosphonates; assay type: biochemical; conditions: concentration required to inhibit enzyme activity by 50%
Chain of IPI (IPP isomerase) (Q13907 whole entry): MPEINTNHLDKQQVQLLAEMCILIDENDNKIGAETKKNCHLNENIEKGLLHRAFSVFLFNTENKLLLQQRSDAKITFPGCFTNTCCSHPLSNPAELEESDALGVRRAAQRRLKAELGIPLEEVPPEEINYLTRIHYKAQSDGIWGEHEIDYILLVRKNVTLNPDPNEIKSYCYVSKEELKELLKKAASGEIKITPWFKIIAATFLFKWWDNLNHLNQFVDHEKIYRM

Ras = experiment: Immunoprecipitation of Ras: farnesylation of Ras; assay type: cell-based; conditions: 41 h
Rab6 = experiment: Immunoprecipitation of Rab6: geranylgeranylation of Rab6; assay type: cell-based; conditions: 41 h
squalene synthase = target: T1, squalene synthase (Rattus norvegicus, UniProt Q02769); conditions: cited from earlier work
T1 sequence (Q02769 1-416): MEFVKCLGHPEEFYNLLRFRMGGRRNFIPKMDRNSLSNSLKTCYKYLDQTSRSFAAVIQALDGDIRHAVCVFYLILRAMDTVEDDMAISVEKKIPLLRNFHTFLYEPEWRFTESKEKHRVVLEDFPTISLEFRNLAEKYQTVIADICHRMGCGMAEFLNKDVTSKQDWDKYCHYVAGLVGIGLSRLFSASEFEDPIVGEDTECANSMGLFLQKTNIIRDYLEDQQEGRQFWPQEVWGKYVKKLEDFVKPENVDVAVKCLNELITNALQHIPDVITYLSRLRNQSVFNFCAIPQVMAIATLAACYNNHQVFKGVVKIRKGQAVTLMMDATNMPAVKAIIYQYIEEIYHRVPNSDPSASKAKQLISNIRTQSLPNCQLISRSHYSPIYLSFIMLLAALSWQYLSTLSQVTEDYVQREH

J774 macrophages [3] = experiment: Assessment of apoptosis in J774 macrophages (nuclear morphology, DNA fragmentation); assay type: cell-based; conditions: 10-100 μM

SMILES: O=P(O)(O)C(Cl)(Cl)P(=O)(O)O [clodronate]
reduction in viability of J774 cells (J774 macrophages [1]; 750 μM): substantial reduction
protein prenylation and synthesis of radiolabelled dye-front compounds ([2]; 750 μM): did not affect

IC50 (IPI (IPP isomerase)): 75 nM
SMILES: NCCCC(O)(P(=O)(O)O)P(=O)(O)O [ALENDRONATE, alendronate]
apoptosis and loss of cell viability with FPP or GGPP co-incubation (J774 macrophages [1]; 100 μM alendronate + 200 μM FPP or GGPP): could be partially inhibited
IC50 (J774 macrophages [1]; Mus musculus, J774 cells, after 48 h): ~30000 nM
incorporation of radiolabel (mevalonate) into protein bands [2]: markedly reduced
farnesylated form of Ras after immunoprecipitation (Ras; 100 μM): barely detectable
geranylgeranylated form of Rab6 after immunoprecipitation (Rab6; 10 μM): barely detectable
inhibition of squalene synthase (squalene synthase): not

IC50 (IPI (IPP isomerase)): 35 nM
SMILES: CCCCCN(C)CCC(O)(P(=O)(O)O)P(=O)(O)O [IBANDRONATE, ibandronate]
incorporation of radiolabel (mevalonate) into protein bands [2]: markedly reduced
inhibition of squalene synthase (squalene synthase): potent inhibitors

SMILES: O=P(O)(O)C(O)(Cc1cccnc1)P(=O)(O)O [RISEDRONATE, risedronate]
IC50 (IPI (IPP isomerase)): 22 nM
IC50 (J774 macrophages [1]; Mus musculus, J774, 48 h): ~3000 nM

SMILES: O=P(O)(O)C(NC1CCCCCC1)P(=O)(O)O [YM175]
IC50 (IPI (IPP isomerase)): 35 nM
incorporation of radiolabel (mevalonate) into protein bands [2]: inhibited even more effectively
inhibition of squalene synthase (squalene synthase): potent inhibitors

SMILES: CC[C@H](C)C(=O)O[C@H]1CCC=C2C=C[C@H](C)[C@H](CC[C@@H]3C[C@@H](O)CC(=O)O3)[C@H]21 [mevastatin]
loss of cell viability with cycloheximide co-incubation (J774 macrophages [1]; 15 μM mevastatin + 0.5 μM cycloheximide, 48 h): could be prevented
IC50 (J774 macrophages [1]; J774 cells, after 48 h): ~10000 nM
loss of cell viability and apoptosis with FPP, GGPP or mevalonic acid lactone co-incubation (J774 macrophages [1]; mevastatin + 200 μM FPP, GGPP or mevalonic acid lactone): prevented (at least partially)
proportion of J774 cells with features typical of apoptosis (J774 macrophages [3]): dose-dependent increase
farnesylated form of Ras after immunoprecipitation (Ras; 15 μM): Identical results
geranylgeranylated form of Rab6 after immunoprecipitation (Rab6; 11 μM): barely detectable
